The values below come from ChEMBL document CHEMBL4130497, “Fragment-based approach to identify IDO1 inhibitor building blocks” (Eur J Med Chem, 2017).

Data set [1] has as its target Indoleamine 2,3-dioxygenase 1 (Homo sapiens, UniProt P14902). The data set can be described thus: Binding affinity to NT647 dye labeled recombinant human IDO1 (1 to 403 residues) by microscale thermophoresis method. On the technique in general: In MST a laser heats a spot of the sample, and binding alters the fluorescence response.
Data set [2] is described as follows: Dissociation constant, pKa of the compound. It counts as physicochemical.
Data set [3] in a line: Lipophilicity, log P of the compound in n1-octanol and water by pH-metric assay. It is filed as physicochemical. The conditions noted are these: n-octanol/water.
Data set [4] has as its target Indoleamine 2,3-dioxygenase 1 (Mus musculus) (UniProt P28776). The experiment in a line: Inhibition of mouse IDO1 expressed in mouse P1.HTR cells assessed as reduction in kynurenine production from L-Trp incubated for 16 hrs by HPLC method. It counts as cell-based.

Indoleamine 2,3-dioxygenase 1, sequence (P14902 whole entry, the tested form may be a part): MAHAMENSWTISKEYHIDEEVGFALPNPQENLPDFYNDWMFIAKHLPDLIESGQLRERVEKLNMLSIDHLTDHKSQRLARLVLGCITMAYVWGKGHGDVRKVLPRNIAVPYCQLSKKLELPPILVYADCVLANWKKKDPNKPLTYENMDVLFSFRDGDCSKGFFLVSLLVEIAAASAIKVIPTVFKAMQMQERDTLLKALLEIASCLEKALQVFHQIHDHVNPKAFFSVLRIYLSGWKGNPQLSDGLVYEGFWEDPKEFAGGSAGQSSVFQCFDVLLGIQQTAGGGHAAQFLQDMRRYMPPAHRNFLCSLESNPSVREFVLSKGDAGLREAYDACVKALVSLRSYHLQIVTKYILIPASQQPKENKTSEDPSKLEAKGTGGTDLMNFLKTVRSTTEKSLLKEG
Indoleamine 2,3-dioxygenase 1 (Mus musculus), sequence (P28776 whole entry, looked up): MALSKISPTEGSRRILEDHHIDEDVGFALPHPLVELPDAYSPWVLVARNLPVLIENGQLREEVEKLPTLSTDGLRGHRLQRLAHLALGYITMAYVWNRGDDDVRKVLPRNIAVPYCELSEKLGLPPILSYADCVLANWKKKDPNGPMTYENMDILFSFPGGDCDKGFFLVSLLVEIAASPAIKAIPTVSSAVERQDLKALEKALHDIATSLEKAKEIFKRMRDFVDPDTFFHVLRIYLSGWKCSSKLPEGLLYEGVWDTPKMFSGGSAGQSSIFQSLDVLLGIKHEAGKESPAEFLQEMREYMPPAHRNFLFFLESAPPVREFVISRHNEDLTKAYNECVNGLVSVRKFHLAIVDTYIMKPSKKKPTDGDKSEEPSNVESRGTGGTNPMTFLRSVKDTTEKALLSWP

What is called Kd is a measure of binding affinity in units of concentration. In the case of `Cc1ccc(NCCNC(=O)c2c[nH]c3ccccc23)nn1`, the Kd in data set [1] was over 1000 µM.

For orientation: pKa means the pH at which an ionisable group is half protonated. In data set [2], `OC(CC1c2ccccc2-c2cncn21)C1CCCCC1` (stereo not given) showed a pKa of 6.7.

As to `NCC(O)COCC1COc2ccccc2O1` (stereo not given), the Kd in data set [1] is over 1000 µM.

As for `NC(=O)c1csc(NC(=O)Cc2c[nH]c3ccccc23)c1`, the Kd in data set [1] was 61.5 µM.

By logP is commonly meant a log measure of how a compound divides between an organic and an aqueous phase. Low readings indicate lower lipophilicity, high ones higher lipophilicity. Consider `O=S(=O)(NCc1cccnc1)c1ccc2ccccc2c1`, for which the Kd in data set [1] came out at 53.7 µM. Moreover, the logP in data set [3] was 2.5. Moreover, the pKa in data set [2] was 4.8 to 10.3.

For the compound `Cn1cc(C(O)CN)c2ccccc21` (stereo not given), in data set [1], the Kd was 97 µM.

Turning to `COc1ccccc1OCC(O)Cn1cnc2ccccc21` (stereo not given), in data set [1], the dissociation constant (Kd) turned out to be 86.8 µM.

For `NCCc1nc2ccc(F)cc2[nH]1`, in data set [1], the Kd was 548 µM.

As for `NC(=O)CN1CCN(c2cccc3ccccc23)C(=O)C1=O`, the Kd in data set [1] is over 1000 µM.

In the case of `O=C(NCCn1ncccc1=O)c1ccc2ccccc2c1`, the Kd in data set [1] was found to be 240 µM.

On to `O=C1CC(NC(=O)Cn2ccc3ccccc32)CN1` (stereo not given), for which the Kd in data set [1] was found to be 237 µM.

`COc1ccc(-c2cnc(CN)[nH]2)cc1`: the Kd in data set [1] was over 500 µM.

Take `NC(S)=NNC(=O)Nc1ccc(Cl)c(Cl)c1`: the Kd in data set [1] was determined as 941 µM.

As to `NCC(O)c1cccc2ccccc12` (stereo not given), in data set [1], the Kd is over 1000 µM.

Consider `Cc1ccc(NCCNC(=O)c2cccc(Cl)c2)nn1`, for which, in data set [1], the Kd was over 1000 µM.

Consider `OC(c1nc2ccccc2[nH]1)C(O)c1nc2ccccc2[nH]1` (stereo not given), for which the Kd in data set [1] came out at 774 µM.

On to `CCc1cccc2sc(NCCN3CCOCC3)nc12`, for which the Kd in data set [1] was 33.5 µM. The logP in data set [3] stood at 2.3. In data set [2], this compound came in with a pKa of 3.1 to 6.2.

For the compound `N=C(N)Sc1c[nH]c2ccccc12`, the Kd in data set [1] worked out at 17.8 µM. The same compound yielded a logP in data set [3] of 1.8. Further, the fold change (FC) in data set [4] was under 0.6. In data set [2], this compound displayed a pKa of 9.5.

For the compound `O=C(/C=C/N1CCOCC1)c1coc2ccccc12`, the dissociation constant Kd in data set [1] was 147 µM.

For `NCC(O)c1cc(Cl)cc(Cl)c1` (stereo not given), the Kd in data set [1] is over 1000 µM.

Take `COC(=O)C(N)c1ccc2ccccc2c1` (stereo not given): in data set [1], the Kd amounted to 169 µM.

With `Cc1c(C)n(CC(O)CN2CCNCC2)c2ccccc12` (stereo not given), the Kd in data set [1] was 96.7 µM.

On to `COc1ccccc1OCC(O)CNC1CCCC1` (stereo not given), for which the Kd in data set [1] is over 1000 µM.
